From patent US20060159746A1, “Compositions comprising fatty acids and amino acids” (priority 2003, published 2006)
Marks after values point to notes of the source that are not given here.

Tests used:
Format in all cases: in vivo
Lepr db mouse = test: OGT (1 g glucose/kg) combined with oral administration of the active ingredient; postprandial glucose and insulin; set-up: Serum insulin levels: unit not given here; details: for Serum glucose levels: in mg/dL (unit assumed)
Protocol: Acute effects of a nutritional formula, Starlix® and 4-HI on glycemic control in the type 2 diabetes animal model (Lepr db mouse) were studied. Animals underwent an OGT (1 g glucose/kg) combined with oral administration of the active ingredient. The following groups were tested: (A) placebo (2% Tween 80, 20 ml/kg), (B) 4-HI (100 mg/kg), (C) guar gum (150 mg/kg), (D) Starlix® (65 mg/kg), (E) Starlix®+4-HI, and (F) Starlix®+guar gum. Postprandial glucose and insulin were studied at 0, 30, 60 and 90 min.

[1] = Body weight and weight gain of Lepr db/db mice fed different fatty acid diets for 6 wks; details: for Body wt at 6 wks: 6 wks after dietary intervention; for Wt gain at 6 wks: 6 wks of diet
Protocol: (§1) C57BLKS/J-Lepr^db/db male mice (4 wks of age) were obtained from Jackson Laboratory, Bar Harbor, Me. Mice were initially maintained on commercial chow for 2 wks, followed by a purified stabilization diet providing 40% en as fat and 2% en as linoleic acid (LA, 18:2n-6) for another 2 wks. At 8 wks of age, a baseline oral glucose tolerance test was conducted. Based on their OGTT profile, mice were evenly distributed among 6 groups (n=6 per each group) and were fed one of 6 experimental diets designed to establish the relative importance of specific fatty acid supplementation on ameliorating insulin resistance.
(§2) Table 1 gives the predicted fatty acid profile (% en) for the 6 experimental diets. The control diet, based on butter and palm oil blend, provided 40% en as fat with 2% en as LA. […] These Lepr db/db mice were fed one of the above 6 diets for 6 weeks.
(§3) Body weights of animals were recorded each week. Insulin tolerance testing was performed after 6 weeks of dietary intervention. Mice (non-fasted) were injected intraperitoneally with 1.5 U/kg human insulin and blood glucose concentrations were determined at 0, 15, 30 and 60 min after insulin injection by tail bleeding, using a glucometer. A week later, fasting blood samples were collected by cardiac puncture, under Co2/O2 anesthesia, for analysis of plasma insulin, triglyceride (TG) and total cholesterol (TC). […] Plasma insulin was determined using the RIA kit (Linco research Inc, MO).

Lepr db/db mice [2] = test: Insulin tolerance testing (blood glucose after i.p. human insulin) after 6 weeks of dietary intervention; details: 1.5 U/kg human insulin i.p.
Protocol: as §1, §2, §3

Lepr db/db mice [3] = test: Fasting plasma lipids (TG, TC) in Lepr db/db mice fed different fatty acids; details: after diet feeding
Protocol: as §1, §2, §3

Compound | Serum insulin levels (Lepr db mouse; 0 min of OGT) | Serum glucose levels (Lepr db mouse; 0 min of OGT) | Serum insulin levels (Lepr db mouse; 30 min of OGT) | Serum glucose levels (Lepr db mouse; 30 min of OGT) | Serum insulin levels (Lepr db mouse; 60 min of OGT) | Serum glucose levels (Lepr db mouse; 60 min of OGT) | Serum insulin levels (Lepr db mouse; 90 min of OGT) | Serum glucose levels (Lepr db mouse; 90 min of OGT) | Body wt at 6 wks [1] [g] | Wt gain at 6 wks [1] [g] | Mean blood glucose values (percentage of intial) after insulin administration (Lepr db/db mice [2]; 0 min, non-fasted) | Mean blood glucose values (percentage of intial) after insulin administration (Lepr db/db mice [2]; 15 min) | Mean blood glucose values (percentage of intial) after insulin administration (Lepr db/db mice [2]; 30 min) | Mean blood glucose values (percentage of intial) after insulin administration (Lepr db/db mice [2]; 60 min) | Fasting plasma TC (Lepr db/db mice [3]) | Fasting plasma TG (Lepr db/db mice [3]) | Hypoglycemic effect, in words (Lepr db mouse; serum glucose in OGT)
C[C@@H]([C@H](C)O)[C@H](N)C(=O)O [4HI, 4-hydroxyisoleucine] | 8.17 | 227.7 | 11.27 | 473.7 | 6.41 | 494.7 | 4.63 | 584 | – | – | – | – | – | – | – | – | –
CC/C=C\C/C=C\C/C=C\C/C=C\C/C=C\C/C=C\CCC(=O)O [DHA, docosahexaenoic acid] | – | – | – | – | – | – | – | – | 48.9 ± 3.8 | 6.1 ± 5.2 | 100 percentage of intial | 131 percentage of intial | 120 percentage of intial | 99 percentage of intial | 288 ± 39 ^ mg/dl | 101 ± 14^a,c mg/dl | –
CCCCC/C=C\C/C=C\CCCCCCCC(=O)O [LA, linoleic acid] | – | – | – | – | – | – | – | – | 43.9 ± 5.4 | 2.5 ± 4.3 | 100 percentage of intial | 135 percentage of intial | 115 percentage of intial | 85 percentage of intial | 313 ± 28 ^ mg/dl | 120 ± 24^a,b mg/dl | –
CC/C=C\C/C=C\C/C=C\CCCCCCCC(=O)O [LNA, linolenic acid] | – | – | – | – | – | – | – | – | 50.5 ± 2.4 | 8.3 ± 4 | 100 percentage of intial | 138 percentage of intial | 127 percentage of intial | 100 percentage of intial | 326 ± 13^ mg/dl | 142 ± 27^b mg/dl | –
CC(C)[C@H]1CC[C@H](C(=O)N[C@H](Cc2ccccc2)C(=O)O)CC1 [Starlix, nateglinide] | 9.8 | 210 | 11.18 | 456.7 | 5.38 | 497.3 | 3.75 | 599 | – | – | – | – | – | – | – | – | significant hypoglycemic effect at T90
